{
  "source": "patent US10654816B2",
  "about": "“Compounds and compositions for treating conditions associated with NLRP activity” (NOVARTIS INFLAMMASOME RESEARCH, INC., priority 2017, dated 2020)",
  "data": [
    {"test_system": "IL-1β production in PMA-differentiated THP-1 cells", "test": "IL-1β production in PMA-differentiated THP-1 cells stimulated with gramicidin (hTHP-1 assay, HTRF readout; Procedures 1-3)", "type": "cell-based, human", "conditions": "Homo sapiens, THP-1, hTHP-1 assay containing 2% fetal bovine serum; average; class symbols; read-out: hTHP-1 IC50 (Average IC50 of compounds in hTHP-1 assay)", "how_it_was_run": "(§1)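 PMA-differentiated (20 ng/ml, 16-18 h) THP-1 cells in RPMI with 2% FBS, 50,000 cells/well, preincubated 1 h with compound (final 0.0017-100 μM, 0.37% DMSO), then stimulated with 5 μM gramicidin for 2 h. IL-1β in cell-free supernatant measured by HTRF (620/668 nm).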", "units": {"IC50": "nM"}, "values": [
      {"molecule": "CC(C)(O)c1csc(S(N)(=O)=NC(=O)Nc2c3c(c(C#N)c4c2CCC4)CCC3)c1", "note": "(stereo not shown) [Example 26, N′-(8-cyano-1,2,3,5,6,7-hexahydro-s-indacen-4-ylcarbamoyl)-4-(2-hydroxypropan-2-yl)thiophene-2-sulfonimidamide]", "IC50": "40 to 200"},
      {"molecule": "CN1CCc2cc(S(N)(=O)=NC(=O)Nc3c4c(cc5c3CCC5)CCC4)ccc2C1", "note": "(single isomer, unassigned) [Example 395, (R) or (S)-N′-((1,2,3,5,6,7-hexahydro-s-indacen-4-yl)carbamoyl)-2-methyl-1,2,3,4-tetrahydroisoquinoline-6-sulfonimidamide]", "IC50": "1000 to 5000"},
      {"molecule": "CC(C)c1cc(F)cc(C(C)C)c1NC(=O)N=S(N)(=O)c1cc(Cl)c(Cl)s1", "note": "(stereo not shown) [Example 208, 4,5-Dichloro-N′-((4-fluoro-2,6-diisopropylphenyl)carbamoyl)thiophene-2-sulfonimidamide]", "IC50": "5000 to 30000"},
      {"molecule": "CC(C)(O)c1ncc(S(N)(=O)=NC(=O)Nc2c3c(cc4c2CC4)CC3)s1", "note": "(stereo not shown) [Example 226, 2-(2-Hydroxypropan-2-yl)-N′-(tricyclo[6.2.0.03,6]deca-1,3(6),7-trien-2-ylcarbamoyl)thiazole-5-sulfonimidamide]", "IC50": "8 to 40"},
      {"molecule": "Cc1cc(C(C)(C)O)sc1S(N)(=O)=NC(=O)Nc1c(C(C)C)cc(OC(F)F)cc1C(C)C", "note": "(single isomer, unassigned) [Example 109, (S)- or (R)-N′-(4-(difluoromethoxy)-2,6-diisopropylphenylcarbamoyl)-5-(2-hydroxypropan-2-yl)-3-methylthiophene-2-sulfonimidamide]", "IC50": "200 to 1000"},
      {"molecule": "CC(C)c1nn(-c2ccccc2)c(C(C)C)c1NC(=O)N=S(N)(=O)c1cc(C(C)(C)O)cs1", "note": "(stereo not shown) [Example 284, N′-((3,5-diisopropyl-1-phenyl-1H-pyrazol-4-yl)carbamoyl)-4-(2-hydroxypropan-2-yl)thiophene-2-sulfonimidamide]", "IC50": "5000 to 30000"},
      {"molecule": "CC(C)c1cc(F)cc(C(C)C)c1NC(=O)N=S(N)(=O)c1cccnc1", "note": "(stereo not shown) [Example 215, N′-((4-fluoro-2,6-diisopropylphenyl)carbamoyl)pyridine-3-sulfonimidamide]", "IC50": "5000 to 30000"},
      {"molecule": "COc1cc(CN(C)C)ccc1S(N)(=O)=NC(=O)Nc1c2c(cc3c1CCC3)CCC2", "note": "(stereo not shown) [Example 272, 4-((Dimethylamino)methyl)-N′-((1,2,3,5,6,7-hexahydro-s-indacen-4-yl)carbamoyl)-2-methoxybenzenesulfonimidamide]", "IC50": "200 to 1000"},
      {"molecule": "CC(C)c1cc(C#N)cc(C(C)C)c1NC(=O)N=S(N)(=O)c1ncc(C(C)(C)O)s1", "note": "(stereo not shown) [Example 35, N′-(4-cyano-2,6-diisopropylphenylcarbamoyl)-5-(2-hydroxypropan-2-yl)thiazole-2-sulfonimidamide]", "IC50": "200 to 1000"},
      {"molecule": "CC(C)c1cc(C#N)cc(C(C)C)c1NC(=O)N=S(N)(=O)c1cc(C(C)(C)O)cc(C(C)(C)O)c1", "note": "(stereo not shown) [Example 66, N′-((4-cyano-2,6-diisopropylphenyl)carbaoyl)-3,5-bis(2-hydroxypropan-2-yl)benzenesulfonimidamide]", "IC50": "5000 to 30000"},
      {"molecule": "CC(C)(O)c1ncc(S(N)(=O)=NC(=O)Nc2c3c(cc4c2CCC4O)CCC3)s1", "note": "(single isomer, unassigned) [Example 337, (R, R) or (R, S)-N′-((l-hydroxy-1,2,3,5,6,7-hexahydro-s-indacen-4-yl)carbamoyl)-2-(2-hydroxypropan-2-yl)thiazole-5-sulfonimidamide]", "IC50": "1000 to 5000"},
      {"molecule": "CC(C)(O)c1cnc(S(N)(=O)=NC(=O)Nc2c3c(cc4c2CCO4)CCC3)s1", "note": "(stereo not shown) [Example 257, 5-(2-hydroxypropan-2-yl)-N′-((3,5,6,7-tetrahydro-2H-indeno[5,6-b]furan-4-yl)carbamoyl)thiazole-2-sulfonimidamide]", "IC50": "40 to 200"},
      {"molecule": "CC(C)(O)c1csc(S(N)(=O)=NC(=O)Nc2c3c(cc4c2CCC4)CCC3)n1", "note": "(stereo not shown) [Example 77, N′-(1,2,3,5,6,7-hexahydro-s-indacen-4-ylcarbamoyl)-4-(2-hydroxypropan-2-yl)thiazole-2-sulfonimidamide]", "IC50": "[…]"},
      {"molecule": "CC(C)c1ccc(S(N)(=O)=NC(=O)Nc2c3c(cc4c2CCC4)CCC3)cn1", "note": "(single isomer, unassigned) [Example 402, (S) or (R)-N′-((1,2,3,5,6,7-hexahydro-s-indacen-4-yl)carbamoyl)-6-isopropylpyridine-3-sulfonimidamide]", "IC50": "1000 to 5000"},
      {"molecule": "CC(C)c1cc(F)cc(C(C)C)c1NC(=O)N=S(N)(=O)c1cccc(S(C)(=O)=O)c1", "note": "(stereo not shown) [Example 63, N′-((4-fluoro-2,6-diisopropylphenyl)carbaoyl)-3-(methylsulfonyl)benzenesulfonim idamide]", "IC50": "1000 to 5000"},
      {"molecule": "Cc1sc(S(N)(=O)=NC(=O)Nc2c3c(cc4c2CCC4)CCC3)cc1C(C)(C)O", "note": "(stereo not shown) [Example 12, N′-(1,2,3,5,6,7-hexahydro-s-indacen-4-ylcarbamoyl)-4-(2-hydroxypropan-2-yl)-5-methylthiophene-2-sulfonimidamide]", "IC50": "40 to 200"},
      {"molecule": "Cc1oc(S(N)(=O)=NC(=O)Nc2c3c(cc4c2CCC4)CCC3)cc1C(C)(C)O", "note": "(stereo not shown) [Example 1, N′-(1,2,3,5,6,7-hexahydro-s-indacen-4-ylcarbamoyl)-4-(2-hydroxypropan-2-yl)-5-methylfuran-2-sulfonimidamide]", "IC50": "8 to 40"},
      {"molecule": "CCc1ccc2cnn(C)c2c1NC(=O)N=S(N)(=O)c1ncc(C(C)(C)O)s1", "note": "(single isomer, unassigned) [Example 328, (R) or (S)-N′-((6-ethyl-1-methyl-1H-indazol-7-yl)carbamoyl)-5-(2-hydroxypropan-2-yl)thiazole-2-sulfonimidamide]", "IC50": "1000 to 5000"},
      {"molecule": "CN1CCc2ccc(S(=N)(=O)NC(=O)Nc3c4c(cc5c3CCC5)CCC4)cc2C1", "note": "(stereo not shown) [Example 271, N-(1,2,3,5,6,7-hexahydro-s-indacen-4-ylcarbamoyl)-2-methyl-1,2,3,4-tetrahydroisoquinoline-7-sulfonimidamide]", "IC50": "1000 to 5000"},
      {"molecule": "CC(C)(O)c1ncc(S(N)(=O)=NC(=O)Nc2c3c(cc4c2CCC4)CCC3)s1", "note": "(stereo not shown) [Example 4, N′-(1,2,3,5,6,7-hexahydro-s-indacen-4-ylcarbamoyl)-2-(2-hydroxvpropan-2-yl)thiazole-5-sulfonimidamide]", "IC50": "[…]"},
      {"molecule": "CC(C)Cc1ccc(S(N)(=O)=NC(=O)Nc2c3c(cc4c2CCC4)CCC3)cn1", "note": "(stereo not shown) [Example 275, N′-(1,2,3,5,6,7-hexahydro-s-indacen-4-ylcarbamoyl)-6-isobutylpyridine-3-sulfonimidamide]", "IC50": "1000 to 5000"},
      {"molecule": "CCc1ccc2cn[nH]c2c1NC(=O)N=S(N)(=O)c1cnc(C(C)(C)O)s1", "note": "(single isomer, unassigned) [Example 326, (R) or (S)-N′-((6-ethyl-1H-indazol-7-yl)carbamoyl)-2-(2-hydroxypropan-2-yl)thiazole-5-sulfonimidamide]", "IC50": "5000 to 30000"},
      {"molecule": "CC(C)(O)c1ccc(S(N)(=O)=NC(=O)Nc2c3c(cc4c2CCC4)CCC3)cn1", "note": "(stereo not shown) [Example 260, N′-((1,2,3,5,6,7-hexahydro-s-indacen-4-yl)carbamoyl)-6-(2-hydroxypropan-2-yl)pyridine-3-sulfonimidamide]", "IC50": "200 to 1000"}
    ]},
    {"test_system": "IL-1β production in PMA-differentiated THP-1 cells", "test": "IL-1β production in PMA-differentiated THP-1 cells stimulated with gramicidin (hTHP-1 assay, HTRF readout; Procedures 1-3)", "type": "cell-based, human", "conditions": "Homo sapiens, THP-1, hTHP-1 assay containing 2% fetal bovine serum; average; given as bound; read-out: hTHP-1 IC50 (Average IC50 of compounds in hTHP-1 assay)", "how_it_was_run": "as §1", "units": {"IC50": "nM"}, "values": [
      {"molecule": "CC(C)c1cc(C#N)cc(C(C)C)c1NC(=O)N=S(N)(=O)c1cc(C(C)(C)O)cc(C(C)(C)O)c1", "note": "(single isomer, unassigned) [Example 199, N′-((4-cyano-2,6-diisopropylphenyl)carbamoyl)-3,5-bis-(2-hydroxypropan-2-yl)benzenesulfonimidamide]", "IC50": "> 30000"},
      {"molecule": "CC(C)c1cc(F)cc(C(C)C)c1NC(=O)N=S(N)(=O)c1ccc(C(C)(C)O)cc1", "note": "(single isomer, unassigned) [Example 84, (R)- or (S)-N′-(4-fluoro-2,6-diisopropylphenylcarbamoyl)-4-(2-hydroxypropan-2-yl)benzenesulfonimidamide]", "IC50": "> 30000"},
      {"molecule": "CC(C)c1cc(F)cc(C(C)C)c1NC(=O)N=S(N)(=O)c1ccc2c(c1)OCO2", "note": "(stereo not shown) [Example 216, N′-((4-fluoro-2,6-diisopropyl-phenyl)carbamoyl)benzo[d][1,3]dioxole-5-sulfonimidamide]", "IC50": "> 30000"},
      {"molecule": "CC(C)c1cc(F)cc(C(C)C)c1NC(=O)N=S(N)(=O)c1cc(Cl)sc1Cl", "note": "(stereo not shown) [Example 214, 2,5-dichloro-N′-((4-fluoro-2,6-diisopropylphenyl)carbamoyl)thio-phene-3-sulfonimidamide]", "IC50": "> 30000"},
      {"molecule": "CC(C)c1ccc(S(N)(=O)=NC(=O)Nc2c3c(cc4c2CCC4)CCC3)cn1", "note": "(single isomer, unassigned) [Example 401, (R) or (S)-N′-((1,2,3,5,6,7-hexahydro-s-indacen-4-yl)carbamoyl)-6-isopropylpyridine-3-sulfonimidamide]", "IC50": "> 30000"}
    ]},
    {"test_system": "IL-1β production in PMA-differentiated THP-1 cells", "test": "IL-1β production in PMA-differentiated THP-1 cells stimulated with gramicidin (hTHP-1 assay, HTRF readout; Procedures 1-3)", "type": "cell-based, human", "conditions": "hTHP-1 assay containing 2% fetal bovine serum; average; class symbols; read-out: hTHP-1 IC50 (Average IC50 of compounds in hTHP-1 assay)", "how_it_was_run": "as §1", "units": {"IC50": "nM"}, "values": [
      {"molecule": "CC(C)(O)c1ncc(S(N)(=O)=NC(=O)Nc2c3c(cc4c2CCC4O)CCC3)s1", "note": "(single isomer, unassigned) [Example 338, (R, S) or (R, R)-N′-((1-hydroxy-1,2,3,5,6,7-hexahydro-s-indacen-4-yl)carbamoyl)-2-(2-hydroxypropan-2-yl)thiazole-5-sulfonimidamide]", "IC50": "1000 to 5000"},
      {"molecule": "CN(C(=O)N=S(N)(=O)c1cnc(C(C)(C)O)s1)c1c2c(cc3c1CCC3)CCC2", "note": "(stereo not shown) [Example 248, N′-((1,2,3,5,6,7-hexahydro-s-indacen-4-yl)(methyl)carbamoyl)-2-(2-hydroxypropan-2-yl) thiazole-5-sulfonimidamide]", "IC50": "5000 to 30000"},
      {"molecule": "CC(C)(O)c1ncc(S(N)(=O)=NC(=O)Nc2c3c(cc4c2C(O)CC4)CCC3)s1", "note": "(single isomer, unassigned) [Example 391, (R, R) or (R, S) or (S, S) or (S, R)-N′-((3-hydroxy-1,2,3,5,6,7-hexahydro-s-indacen-4-yl)carbamoyl)-2-(2-hydroxypropan-2-yl)thiazole-5-sulfonimidamide]", "IC50": "200 to 1000"}
    ]}
  ]
}
